According to patent US12714682B2, “Calixarene compounds and uses thereof” (UNIVERSITÄT WIEN, priority 2019, dated 2026):

How the values were obtained:
[1] = system: LDL-R; experiment: LDL-R immunofluorescence microscopy in HeLa cells; format: cell-based, human; conditions: 50 and 500 μM, 48 hours
Procedure: In another set of experiments, HeLa cells were treated the same way (50 and 500 μM of SCA-744 for 48 hours). Cells were fixed with 4% paraformaldehyde solution for 10 min at RT and permeabilized with 0.1% Triton X-100 for 15 min at RT and analysed by immunofluorescence microscopy using the same anti-human LDLR antibody employed for the immunoblotting. This detection method was more sensitive, and indicated the presence of LDL-R even in control cells.

[2] = system: aged mice; experiment: Lung lysate cytokines in aged mice (animal model of ageing); format: in vivo; conditions: 30 mg/kg i.p., 2 or 3 days intervals for 2 weeks
Procedure: In a second set of experiments, the anti-inflammatory effect of SCA-744 was tested in vivo, in an animal model of ageing. It is well established that the ageing process is associated with low-grade inflammation. Mice older than 18 months show many characteristics of aged humans and are considered as a relevant model of human ageing. […] After treatment of aged mice (5 mice/group) with SCA-744 for 2 weeks (at 2 or 3 days intervals at 30 mg/kg dose, i.p.), lungs of the mice were harvested and lysates were prepared. Cytokine levels were determined by LEGENDplex™ Mouse Inflammation Panel assay from BioLegend. […] Importantly, the anti-inflammatory cytokine IL-10 was not affected by SCA-744.

[3] = system: Human neuroblastoma SH-SY5Y cells; experiment: Untargeted metabolic profiling of SH-SY5Y cells; format: cell-based; conditions: 500 μM, 24 h
Procedure: Human neuroblastoma SH-SY5Y cells were differentiated and treated with 500 μM SCA-744 for 24 h. Cell pellets were extracted using a MeOH:ACN:H2O (2:2:1, v/v) solvent mixture. Untargeted metabolic profiling was performed at the VBCF Metabolomic Unit (www.vbcf.ac.at) employing high-resolution mass spectrometry.
The untarged metabolomic data was analyzed with the Compound Discover Software (version 3.1). The first set of metabolites were analyzed through the internal database of the Vienna Biocenter Core facility. The measured retention time of a compound was compared to the retention time of a standard previously measured. In the case there was a MS2 spectrum available, this was also taken into consideration for identification. The second set of metabolites was annotated with mzCloud (match at least 75%). Identification was based on mzCloud database comparison of measured molecular weight (5 ppm tolerance) and MS2 spectra. The third set of metabolites were annotated via ChemSpider identification (CSID) through molecular weight matching (max. mass tolerance 5 ppm). P-values were calculated by the Compound Discover Software from biological and technical (T1-T2, MS) replicates. For further annotations KEGG, HMDB, BioCyc, Metabolika and PubChem databases were used.
The metabolites with a false discovery rate (FDR)<0.05 along with p-values and corresponding fold-change were extracted and subjected to chemical and metabolic network enrichment analysis. Enrichment analysis based on chemical similarity was conducted using ChemRich that is independent of biochemical pathway assignments, but rather utilizes Tanimoto substructure similarity coefficients and medical subject headings ontology to generate non-overlapping clusters of metabolites into distinct chemical classes. Statistical testing was determined by Kolmogorv-Smirnov testing and an FDR adjusted P value of <0.05 was considered significant.
Comparison of relative metabolite abundance between control and -treated cells was determined by unpaired univariate analysis. Calculated P values were adjusted based on an FDR of 0.05 and filtered by log Fold-Change (log FC) analysis (Table 3). For illustrative purposes the metabolites are annotated on the resulting volcano plot with log FC>1 log FC<−2. A total of 261 annotated metabolites were found with an FDR<0.05.

O=S(=O)(O)c1cc2c(O)c(c1)Cc1cc(S(=O)(=O)O)cc(c1O)Cc1cc(S(=O)(=O)O)cc(c1O)Cc1cc(S(=O)(=O)O)cc(c1O)C2 [SCA-744, 4-sulfocalix[4]arene]
level of LDL-R (immunofluorescence, semi-quantitative) [1]: significantly increased the level of LDL-R in a concentration dependent manner
IL-6, TNF-α and lipocalin (LCN2) in lung lysates [2]: Significantly decreased amounts
anti-inflammatory cytokine IL-10 in lung lysates [2]: not affected
Glycolysis and NADH, as well as ATP [3]: significant down-regulated
Hypoxanthine and Inosine abundance [3]: highly significant up-regulated
Lysophosphatidyl (LPI) abundance [3]: most up-regulated metabolite
Thymine and adenine nucleotides, dipeptides and amino acids [3]: down-regulated
pharmacological response in metabolic analysis [3]: altered lipid metabolism, down-regulated glycolysis and reduction of NADH, ATP
